Experiment [1] concerns Ramos cells. Nature of the experiment: Label-free quantitative proteomics in Ramos cells. It is filed as cell-based, Homo sapiens. To be noted: 24 h; for Difference for 50 nM, C11orf98 / Difference for 100 nM, C11orf98: protein C11orf98 (E9PRG8); for Difference for 50 nM, MED19 / Difference for 100 nM, MED19: protein MED19 (A0JLT2); for Difference for 50 nM, MIF4GD / Difference for 100 nM, MIF4GD: protein MIF4GD (A9UHW6); for Difference for 50 nM, MAP1LC3B;MAP1LC3B2;MAP1LC3A / Difference for 100 nM, MAP1LC3B;MAP1LC3B2;MAP1LC3A: proteins MAP1LC3B;MAP1LC3B2;MAP1LC3A. The protocol: To assess their proteomic selectivity, we incubated the PROTACs at 50 or 100 nM for 24 h with Ramos cells and followed the change in protein abundance via quantitative label-free proteomics (Figure 7, Supporting Figure 6). In agreement with the Western blot analysis, BTK was efficiently degraded by all the PROTACs we tested. […] Ramos cells were incubated with each PROTAC (50 nM) or DMSO in quadruplicates for 24 h and were then subjected to label-free quantitative proteomics analysis. Each graph plots the Log2 fold-change of proteins in the treated samples compared to the DMSO controls (x-axis) vs the −log(p-value) of that comparison in a Student’s t test (y-axis). […]
(§1) supplemented with 300 mM imidazole). The His tag was cleaved by the addition of TEV protease with concomitant dialysis overnight into cleavage buffer (50 mM Tris, pH 8.0, 0.5 mM EDTA, 1 mM DTT) at 4°C. The resulting soluble protein was passed ov er Ni -NTA beads to remove the protease and purified further by gel filtration on a HiLoad_16/60_Superdex_75 (GE Healthcare) column equilibrated with 20 mM Tris, pH 8.0, 50 mM NaCl, 1 mM DTT. The pure protein was then flash-frozen in liquid nitrogen and stored at −80°C.
(§2) C57BL/6 mice were purchased from Harlan (Rehovot, Israel) and maintained in a pathogen-free facility, experiments were carried on 8-12 weeks old male mice. All exp eriments with mice were approved by the Weizmann Institute Animal Care and Use Committee.
(§3) Splenic cells from C57BL/6 mice were isolated by forcing spleen tissue through mesh into PBS containing 2% fetal calf serum and 1 mM EDTA and red blood cells were depleted by lysis buffer. Cells were cultured in 96-well U-b ottom dishes (1x10^6 cells/m L in RPMI 10% […]
(§4) nM, 10 nM, 1 nM, 0.1 nM) for 24 hours at 37° C in 5% humidified CO2 incubator. Following a 24 hours incubation, cells were stimulated with anti-IgM overnight (5 µg/mL, Sigma-Aldrich). Subsequently, cells were stained with anti-B220 (clone RA3-6B2, Biolegend) and anti-CD86 (clone GL-1, Biolegend) antibodies for 30 minutes at 4°C. Single cell suspensions were analyzed by a flow cytometer (CytoFlex, Beckman Coulter).
(§5) Cells were analyzed by intensity based, label-free mass spectrometry based proteomics.
(§6) Sample preparation: 106 Ramos cells were treated in four replicates with either compound or DMSO for 24 hours. Cells were then washed twice by centrifuge at 200 rcf, 4°C for 5 minutes, removing the supernatant and washed with ice cold PBS. Samp les were then centrifuged at 200 rcf, 4°C for 5 minutes, then supernatant was removed and samples were frozen at -80°C.
Samples were dispersed in 75 µl of 50 mM ammonium bicarbonate, and transferred to 1.8 mL glass vials. 75 µl of 10% SDS in 50 mM ammonium bicarbonate were added and the samples were heated to 96° C for 6 minutes. The samples were sonicated thoroughly in a sonication bath until the DNA was sheared as indicated by reduction in viscosity to level enabling easy pipettation. Total protein concentration was estimated using BCA as say and 30 µg from each sample was taken for the experiment. […]
to 60°C for 45 minutes. The samples were cooled to room temperature, and 1/20 volume of […]
200 mM iodoacetamide was added and the reaction was performed in the dark for 30 minutes.
At this point, 1/10 volume of 12% phosphoric acid was added, followed by 6 volume […]
of 90% methanol in 50 mM ammonium bicarbonate. The samples were loaded on S-trap Micro […]
columns (Protify), and washed 3 times with 90% methanol in 50 mM ammonium bicarbonate.
The columns were spun without washing to dry the methanol. Then, 1 µg of trypsin (Promga) […]
in 20 µl of 50 mM ammonium bicarbonate was added to each column, and they were incubated […]
at 47° C for 1. 5 hours. Then, 40 µl of 50 mM ammonium bicarbonate was added and the sample […]
was eluted and another 0. 5 µg of trypsin was added, fo llowed by overnight incubation at 37 ° C.
The columns themselves were further eluted with 40 µl 0.2% formic acid in water, followed […]

In experiment [2] the target is wild-type BTK (Homo sapiens, UniProt Q06187). Nature of the experiment: In vitro kinase activity assay, wild-type BTK (Nanosyn).
The subject of experiment [3] is primary mouse B cells. Put plainly: B cell activation after anti-IgM stimulation, CD86 staining. Type of experiment: cell-based. On the procedure:
Lastly, we assessed the ability of the PROTACs to abrogate the activation of primary mouse B cells in response to B cell receptor stimulation. For this purpose, primary B cells were treated with anti-IgM for 18 h,[36],[37] followed by staining for CD86, a B cell activation surface marker (Figure 8; Supporting Figure 7). […]
as §1, §2, §3, §4, §5, §6
Samples were dispersed in 75 µl of 50 mM ammonium bicarbonate, and transferred to 1.8 mL glass vials. 75 µl of 10% SDS in 50 mM ammonium bicarbonate were added and the samples were heated to 96° C for 6 minutes. The samples were sonicated thoroughly in a sonication bath until the DNA was sheared as indicated by reduction in viscosity to level enabling easy pipettation. Total protein concentration was estimated using BCA as say and 30 µg from each sample was taken for the experiment.

Where [4] appears, read: 50 nM, Log2 fold-change vs DMSO.
The mark [5] stands for this setting: 100 nM, Log2 fold-change vs DMSO.
The mark [6] stands for this setting: anti-IgM stimulation, PROTAC 24 h.

Data on 4 compounds can be found in PMC7349657, “Efficient Targeted Degradation via Reversible and Irreversible Covalent PROTACs” (Journal of the American Chemical Society, 2020).

For orientation: IC50 means the concentration that gives 50% inhibition. Low values mean greater potency in that assay, high ones weaker potency in that assay.

Sequence of wild-type BTK (Q06187 whole entry, species assumed): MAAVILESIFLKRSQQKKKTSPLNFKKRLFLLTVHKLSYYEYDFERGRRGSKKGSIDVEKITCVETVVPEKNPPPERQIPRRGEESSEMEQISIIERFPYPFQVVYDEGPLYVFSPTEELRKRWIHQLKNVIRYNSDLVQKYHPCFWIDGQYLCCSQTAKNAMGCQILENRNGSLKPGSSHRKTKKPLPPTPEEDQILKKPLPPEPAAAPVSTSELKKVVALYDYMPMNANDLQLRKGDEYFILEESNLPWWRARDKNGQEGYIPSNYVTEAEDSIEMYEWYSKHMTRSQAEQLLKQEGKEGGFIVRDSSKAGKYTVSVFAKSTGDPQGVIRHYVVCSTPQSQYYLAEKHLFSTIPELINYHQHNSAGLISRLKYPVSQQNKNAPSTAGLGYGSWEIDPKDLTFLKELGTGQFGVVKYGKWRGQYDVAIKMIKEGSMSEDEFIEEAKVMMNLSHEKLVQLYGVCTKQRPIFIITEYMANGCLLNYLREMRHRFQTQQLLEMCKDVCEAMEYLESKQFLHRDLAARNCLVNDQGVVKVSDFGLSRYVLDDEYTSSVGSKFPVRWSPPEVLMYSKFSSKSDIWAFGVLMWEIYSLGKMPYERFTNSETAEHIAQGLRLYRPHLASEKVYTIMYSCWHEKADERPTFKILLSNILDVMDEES

On to `Nc1ncnc2c1c(-c1ccc(Oc3ccccc3)cc1)nn2C1CCCN(C(=O)C=CCOCCOCCOCCOCCOCCOc2cccc3c2C(=O)N(C2CCC(=O)NC2=O)C3=O)C1` (stereo not shown) [IR-1], for which, in experiment [1] (50 or 100 nM), the “effect on off-targets LCK and PLK1” value is reported as “not significantly affected”; the “off-targets degraded (CSK, LYN, BLK)” value is “degraded the known ibrutinib off-targets CSK, LYN, and BLK”. For the same compound, in experiment [1] (setting [4]), the “Difference for 50 nM, C11orf98” value is -0.4718; the “Difference for 50 nM, MED19” value is 0.1815; the “Difference for 50 nM, MIF4GD” value is listed as -0.2478; the “Difference for 50 nM, MAP1LC3B;MAP1LC3B2;MAP1LC3A” value is 0.1478. For the same compound, in experiment [1] (setting [5]), the “Difference for 100 nM, C11orf98” value is 0.1735; the “Difference for 100 nM, MED19” value is reported as -0.5554; the “Difference for 100 nM, MIF4GD” value is -0.02661; the “Difference for 100 nM, MAP1LC3B;MAP1LC3B2;MAP1LC3A” value is recorded as 0.3122. Moreover, in experiment [1] (proteins RGPD3;RGPD4, 50 nM, Log2 fold-change vs DMSO), the “Difference for 50 nM, RGPD3;RGPD4” value is 0.0493. In addition, the “Difference for 100 nM, RGPD3;RGPD4” value in experiment [1] (proteins RGPD3;RGPD4, 100 nM, Log2 fold-change vs DMSO) is 0.2554. Besides, 2 nM corresponded to half-maximal inhibition in experiment [2] (IC50).

As to `Nc1ncnc2c1c(-c1ccc(Oc3ccccc3)cc1)nn2C1CCCN(C(=O)C=CCCCCOCCOCCOCCOCCOc2cccc3c2C(=O)N(C2CCC(=O)NC2=O)C3=O)C1` (stereo not shown) [IR-2], in experiment [3] (setting [6]), the “inhibition of B cell activation (CD86)” value is recorded as “strongest effect” and the “inhibition of B cell activation compared to ibrutinib” value (“inhibition … compared to ibrutinib” below) is reported as “superior inhibition compared to ibrutinib”. In experiment [1] (50 or 100 nM), the “effect on off-targets LCK and PLK1” value is “not significantly affected”; the “off-targets degraded (CSK, LYN, BLK)” value was “degraded the known ibrutinib off-targets CSK, LYN, and BLK”. For the same compound, in experiment [1] (setting [4]), the “Difference for 50 nM, C11orf98” value is -0.1649; the “Difference for 50 nM, MED19” value is on record as -0.004671; the “Difference for 50 nM, MAP1LC3B;MAP1LC3B2;MAP1LC3A” value is recorded as -0.3401. For the same compound, in experiment [1] (setting [5]), the “Difference for 100 nM, C11orf98” value is reported as -0.1913; the “Difference for 100 nM, MED19” value is listed as 0.772; the “Difference for 100 nM, MAP1LC3B;MAP1LC3B2;MAP1LC3A” value is reported as -0.09776. Also, the “Difference for 50 nM, POM121C” value in experiment [1] (protein POM121C, 50 nM, Log2 fold-change vs DMSO) is on record as 0.7405. In addition, the “Difference for 100 nM, POM121C” value in experiment [1] (protein POM121C, 100 nM, Log2 fold-change vs DMSO) is 0.8148. Also, the “Difference for 50 nM, RASA4;RASA4B” value in experiment [1] (proteins RASA4;RASA4B, 50 nM, Log2 fold-change vs DMSO) is 0.1914. For the same compound, the “Difference for 100 nM, RASA4;RASA4B” value in experiment [1] (proteins RASA4;RASA4B, 100 nM, Log2 fold-change vs DMSO) was -0.07223. In experiment [2], this compound gave an IC50 of 14 nM.

Turning to `Nc1ncnc2c1c(-c1ccc(Oc3ccccc3)cc1)nn2C1CCCN(C(=O)CCCCCCOCCOCCOCCOCCOc2cccc3c2C(=O)N(C2CCC(=O)NC2=O)C3=O)C1` (stereo not shown) [NC-1], in experiment [3] (setting [6]), the “inhibition of B cell activation (CD86)” value is listed as “strongest effect” and the “inhibition … compared to ibrutinib” value was “superior inhibition compared to ibrutinib”. Moreover, in experiment [1] (50 or 100 nM), the “BTK degradation (proteomics)” value is “highest degradation potency against BTK”; the “effect on off-targets LCK and PLK1” value is “not significantly affected”; the “off-targets degraded (CSK, LYN, BLK)” value is “degraded the known ibrutinib off-targets CSK, LYN, and BLK”. Moreover, in experiment [1] (setting [4]), the “Difference for 50 nM, MIF4GD” value came out at 0.1494 and the “Difference for 50 nM, MAP1LC3B;MAP1LC3B2;MAP1LC3A” value is recorded as -0.1034. Also, in experiment [1] (setting [5]), the “Difference for 100 nM, MIF4GD” value was 0.1711 and the “Difference for 100 nM, MAP1LC3B;MAP1LC3B2;MAP1LC3A” value was found to be 0.1967. Moreover, in experiment [1] (protein NUDT19 (A8MXV4), 50 nM, Log2 fold-change vs DMSO), the “Difference for 50 nM, NUDT19” value was found to be 0.09117. In experiment [1] (protein NUDT19 (A8MXV4), 100 nM, Log2 fold-change vs DMSO), the “Difference for 100 nM, NUDT19” value was found to be 0.676. Further, in experiment [1] (protein ZC3H12D (A2A288), 50 nM, Log2 fold-change vs DMSO), the “Difference for 50 nM, ZC3H12D” value is -0.03901. For the same compound, in experiment [1] (protein ZC3H12D (A2A288), 100 nM, Log2 fold-change vs DMSO), the “Difference for 100 nM, ZC3H12D” value is listed as -0.07076. Further, in experiment [1] (proteins SNRPG;SNRPGP15, 50 nM, Log2 fold-change vs DMSO), the “Difference for 50 nM, SNRPG;SNRPGP15” value is listed as -0.1263. The “Difference for 100 nM, SNRPG;SNRPGP15” value in experiment [1] (proteins SNRPG;SNRPGP15, 100 nM, Log2 fold-change vs DMSO) came to 0.0004592. In experiment [2], this compound came in with an IC50 of 16 nM.

`N#CC(=CCCCCOCCOCCOCCOCCOc1cccc2c1C(=O)N(C1CCC(=O)NC1=O)C2=O)C(=O)N1CCCC(n2nc(-c3ccc(Oc4ccccc4)cc3)c3c(N)ncnc32)C1` (stereo not shown) [RC-2]: the “inhibition … compared to ibrutinib” value in experiment [3] (at 1 μM) is on record as “superior activity to ibrutinib”. For the same compound, in experiment [1] (50 or 100 nM), the “effect on off-targets LCK and PLK1” value is reported as “not significantly affected”; the “off-targets degraded (CSK, LYN, BLK)” value was “degraded the known ibrutinib off-targets CSK, LYN, and BLK”. Further, in experiment [1] (setting [4]), the “Difference for 50 nM, C11orf98” value was -0.2599 and the “Difference for 50 nM, MAP1LC3B;MAP1LC3B2;MAP1LC3A” value is listed as -0.1598. In experiment [1] (setting [5]), the “Difference for 100 nM, C11orf98” value was found to be 0.08889 and the “Difference for 100 nM, MAP1LC3B;MAP1LC3B2;MAP1LC3A” value is 0.1213. Moreover, in experiment [1] (protein ESYT2 (A0FGR8), 50 nM, Log2 fold-change vs DMSO), the “Difference for 50 nM, ESYT2” value is 0.001137. For the same compound, in experiment [1] (protein ESYT2 (A0FGR8), 100 nM, Log2 fold-change vs DMSO), the “Difference for 100 nM, ESYT2” value was -0.137. For the same compound, the “Difference for 50 nM, HAX1” value in experiment [1] (protein HAX1 (O00165), 50 nM, Log2 fold-change vs DMSO) is given as -0.1673. In addition, the “Difference for 100 nM, HAX1” value in experiment [1] (protein HAX1 (O00165), 100 nM, Log2 fold-change vs DMSO) is 0.4145. Further, the “Difference for 50 nM, UNC119B” value in experiment [1] (protein UNC119B (A6NIH7), 50 nM, Log2 fold-change vs DMSO) was -0.2229. Also, in experiment [1] (protein UNC119B (A6NIH7), 100 nM, Log2 fold-change vs DMSO), the “Difference for 100 nM, UNC119B” value is recorded as -0.06661. In addition, in experiment [2], it took 1 nM to reach half-maximal inhibition (IC50).
